Publication PMC10584170, “Machine learning-based phenotypic imaging to characterise the targetable biology of Plasmodium falciparum male gametocytes for the development of transmission-blocking antimalarials” (PLOS Pathogens, 2023)
Where two headings read alike, the source gives them in different places.

Experiments:
[1] = tested on: P. falciparum male gametocytes; assay: P. falciparum Dual Gamete Formation Assay (PfDGFA), male readout (exflagellation); assay type: cell-based, Plasmodium falciparum NF54; details: for inhibition at 2 µM: 24h preincubation with gametocytes
Outline: (§1)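 Day-14 NF54 gametocytes were incubated with compound for 24 h at 37°C under 1% O2/3% CO2/96% N2. Gametogenesis was triggered with ookinete medium (0.1 μM xanthurenic acid) plus Cy3-anti-Pfs25, and exflagellation was imaged by brightfield after cooling to 4°C then 28°C. Females were imaged by Pfs25 fluorescence 24 h later at 28°C.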

[2] = tested on: P. falciparum female gametocytes; assay: P. falciparum Dual Gamete Formation Assay (PfDGFA), female readout (Pfs25-positive female gametes); assay type: cell-based, Plasmodium falciparum NF54; details: for inhibition at 2 µM: 24h preincubation with gametocytes
Outline: as §1

[3] = tested on: P. falciparum male gametocytes; assay: PhIDDLI timecourse assay, compound added at timepoints after triggering male gametogenesis; assay type: cell-based, Plasmodium falciparum NF54
Description: To gain greater understanding of their activity, selected molecules displaying different inhibition phenotypes in the initial screen were re-tested. Rather than subjecting gametocytes to a 24h preincubation prior to inducing gametogenesis, compounds were added at varying timepoints after triggering male gametogenesis. Samples were then fixed 20 min post-induction, imaged and analysed similarly using the PhIDDLI pipeline.
Alternatively, if compound action over time was to be assessed, 1.5ml tubes with appropriate dilutions of test compounds were prepared for each timepoint. Gametogenesis was then triggered in the mature gametocyte culture with ookinete medium and temperature decrease from 37°C. At appropriate times, 200 μl of triggered culture was sampled and mixed with test compound. All samples were then allowed to continue gametogenesis and fixed as described previously with paraformaldehyde after 20 min (when a DMSO-treated sample could be expected to be exflagellating).
100 μl of the fixed cell suspensions were added to wells of a 24 well plate containing 1ml PBS and a poly-l-lysine-coated glass coverslip. Cells were allowed to settle and adhere to the coverslip overnight at 4°C before coverslips were transferred to a hydrophobic membrane (Parafilm) for immunofluorescence staining in a humidified, dark box. Cells were permeabilised with 0.1% Triton-X100 in PBS for 10 min before washing in PBS three times. Non-specific binding was blocked by incubating coverslips with PBS + 10% fetal bovine serum (FBS) (blocking buffer) for 1 h. Gametocytes and microgametes were visualised by labelling with an anti-alpha tubulin antibody (raised from chicken embryo brain tubulin but cross-reacts with many other species) (clone DM1A (Sigma)) 1:500 dilution in blocking buffer for 1 h, washed as before, and then stained with an anti-mouse Alexa488 secondary antibody (Thermo-Fisher) 1:1,000 dilution in blocking buffer for a further 1 h. After a final series of washes, the coverslips were mounted on glass slides with VectaShield mountant (Vector Laboratories) containing 4′,6-diamidino-2-phenylindole (DAPI) to visualise cellular DNA.
All slides were imaged using a Nikon Ti fluorescence microscope using an x100 oil objective and 1.5x zoom. For each sample, tubulin-postive, DAPI-positive stained gametocytes/gametes were imaged at random. Z-stack images with 0.3μm slices were captured for each field of view and images deconvolved and transformed by maximum intensity projection within the Nikon NIS Elements software. Within raw images, cells were initially identified by an automated analysis pipeline developed in ICY Bioimage Analysis based upon the intensity of the tubulin staining captured which assigns a region of interest (ROI) around each cell. All ROIs were reviewed by a trained operator and adjusted if necessary to reflect the true outline of the cell (for example if two cells touching had been allocated the same ROI). Raw images contained between 1 and 8 extractable cells.
Code for the PhIDDLI pipeline was written in Python 3.8 and executed by command line within a 64-bit Ubuntu virtual machine running within Oracle VM VirtualBox 6.1. […] Principle component analysis of compound phenotypes (Fig 5) was performed using ClustViz (https://biit.cs.ut.ee/clustvis/) using ln(x+1) transformation, and k-means clustering of the resultant PCA data was coded in R and executed in R Studio version 1.1.456 to identify optimum cluster using the elbow method.

[4] = tested on: calcium-dependent protein kinase 1 (PfCDPK1); details: cited from earlier work
[5] = tested on: cyclin-dependent protein kinase 6 (PfPK6); design: method as in PMID 26934697; details: cited from earlier work
HepG2 cells = assay: HepG2 cytotoxicity counter-screen
[6] = tested on: P. falciparum protein kinase G (PfPKG); details: cited from earlier work

## CNC(=O)c1ccccc1Nc1nc(Nc2ccc(N3CCN(C)CC3)nc2)ncc1C.Cl [TC11]
[1]
  Cytotox ratio Pf Male: 13.8
[1]; this study, read-out: Pf DGFA IC50 MALE
  IC50: 0.25 µM
[2]
  Cytotox ratio Pf Female: 0.344
[3]; compound added concurrent with induction, fixed 20 min post-induction, DMSO control 61.4%
  cells showing apparent DNA replication: 18.6%
[3]; compound added concurrent with triggering male gametogenesis or 2 min later
  effect on exflagellation: substantially reduced
[3]; compound added during the first 2 min of male gametogenesis
  amounts of cells showing evidence of DNA replication: markedly reduced
[3]; compound added later than 2 min post-induction (up to 10 min)
  effect on exflagellation: inhibited exflagellation
[4]; enzymatic assay
  activity against recombinant PfCDPK1: active
[5]
  activity against recombinant PfPK6: active
HepG2 cells; mean of the HepG2 TOX50 values
  Mean TOX: 3.44 µM

## CC(C)(CN)c1nc(-c2ccc(Cl)c(O)c2)c(-c2ccncc2)[nH]1.Cl [TCMDC-140369]
[1]; Plasmodium falciparum, average of replicates, read-out: Average inhibition male (%)
  inhibition at 2 µM: 95%
[1]; Plasmodium falciparum, replicate R1, read-out: % inhibition male (individual replicates) R1
  inhibition at 2 µM: 96%
[1]; Plasmodium falciparum, replicate R2, read-out: % inhibition male (individual replicates) R2
  inhibition at 2 µM: 97.9%
[1]; Plasmodium falciparum, replicate R3, read-out: % inhibition male (individual replicates) R3
  inhibition at 2 µM: 95.1%
[1]; Plasmodium falciparum, replicate R4, read-out: % inhibition male (individual replicates) R4
  inhibition at 2 µM: 90.9%
[1]; Plasmodium falciparum, PfDGFA, 24 h incubation with gametocytes before induction, exflagellation readout, read-out: Male IC50
  IC50: 0.91 µM
[2]; Plasmodium falciparum, average of replicates, read-out: Average inhibition female (%)
  inhibition at 2 µM: 51.4%
[2]; Plasmodium falciparum, replicate R1, read-out: % inhibition female (individual replicates) R1
  inhibition at 2 µM: 22.1%
[2]; Plasmodium falciparum, replicate R2, read-out: % inhibition female (individual replicates) R2
  inhibition at 2 µM: 80%
[2]; Plasmodium falciparum, replicate R3, read-out: % inhibition female (individual replicates) R3
  inhibition at 2 µM: 27.7%
[2]; Plasmodium falciparum, replicate R4, read-out: % inhibition female (individual replicates) R4
  inhibition at 2 µM: 75.6%
[2]; Plasmodium falciparum, PfDGFA, 24 h incubation with gametocytes before induction, female gamete readout, read-out: Female IC50
  IC50: 0.27 µM
[4]
  activity against PfCDPK1: additional activity
[6]
  PfPKG inhibition: PfPKG inhibitor
HepG2 cells; cytotoxic activity against HepG2 cells
  Tox50: 17.63 µM
